Experimental data: BindingDB's records for doi:10.1021/jm500228a (Gilead Sciences, 2014)

Experiment: Inhibition of Flt3 in human MV411 cells assessed as assessed as proliferation after 72 hrs incubation by spectrophotometry

Q: For `c1cn2cc(-c3ccc4cn[nH]c4c3)nc(Nc3ccc(N4CCOCC4)cc3)c2n1`, which EC50 is on record?
A: 327 nM
